Laboratory results as given in patent US9974776B2, “Estrogen receptor beta agonists for use in treating mesothelioma” (Karo Pharma AB, priority 2013, dated 2018).
Like-named read-outs stand apart in the source and are kept apart here.

How the values were obtained:
MET5A cells = assay: Proliferation assay in non-malignant mesothelial MET5A cells; assay type: cell-based; conditions: 24 hours treatment
Protocol: (§1) Cells were seeded at a density of 10×10^4 cells/well in 6-well plates in RPMI medium supplemented with 10% FBS, 100 μg/ml streptomycin and 10 μg/ml penicillin and incubated over-night at 37° C. in a humidified environment containing 5% CO2 to allow adherence. Following treatment cells were trypsinized and stained with Trypan blue. The number of cells considered viable (unstained cells) was counted in a Bürker haemocytometer within 5 minutes after staining.
Cell cultures were pretreated with Compound (I) for 1-16 hours (depending on experiment) followed by wash-off and then replenished with normal growth medium±cisplatin, pemetrexed or cisplatin/pemetrexed. Total incubation time was 24-72 hours (depending on experiment). Control cultures were maintained in normal growth medium without added drug. The number of viable cells was determined as described for the proliferation assay.

REN cells = assay: Proliferation assay (Trypan blue viable cell count; wash-off and add-on experiments) in REN cells; assay type: cell-based, human; conditions: concentrations used in Example 2(a), said in b159 to be the respective IC50 concentrations, read-out: IC50 concentration in REN cells
Protocol: as §1
Control cultures were maintained in normal growth medium without added drug. The number of viable cells was determined as described for the proliferation assay.
In the add-on experiments the second drug was added directly to the cell culture medium without wash-off of the first drug. […] Control cultures were maintained in normal growth medium without added drug. The number of viable cells was determined as described for the proliferation assay.

PARP1 cleavage = assay: Western blot of PARP1 cleavage in REN cells; assay type: cell-based, human; conditions: agent alone
Protocol: Cells were extracted with 1% NP-40 lysis buffer (1% NP-40, 150 mM NaCl, 50 mM Tris-HCl pH 8.5 mM EDTA, 10 mM NaF, 10 mM Na4P2O7, 0.4 mM Na3VO4) with freshly added protease inhibitors (10 μg/ml leupeptin, 4 μg/ml pepstatin and 0.1 Unit/ml aprotinin). For protein extraction from tissues, ˜100 mg of each sample were homogenized, using a Potter-Elvehjem homogenizer device, in 1% NP-40 lysis buffer. Lysates were centrifuged at 13.000×g for 10 minutes at 4° C. and the supernatants were collected and assayed for protein concentration with the Bio-Rad protein assay method.
Proteins were separated by SDS-PAGE under reducing conditions. Following SDS-PAGE, proteins were transferred to nitrocellulose, reacted with specific antibodies and then detected with peroxidase-conjugate secondary antibodies and chemioluminescent ECL reagent. Densitometric analysis was performed using the GS 250 Molecular Image (Bio-Rad).
Levels of PARP1, cleaved PARP1, AKT and phosphorylated AKT in REN cells treated for 24 hours with cisplatin (25, 50 and 100 μM) or pre-treated 2 hours with Compound (I) (10 nM) followed by wash-off and continued growth in normal medium±cisplatin (25, 50 and 100 μM), for an additional 24 hours were also determined by Western blot analysis and relative densitometry. Total AKT and Tubulin staining were used for normalization. PARP1 cleavage was analysed as it is an indicator of apoptotic cell death. As increased AKT activity has been implicated in the control of proliferation, apoptosis and cisplatin resistance (Pinton G., et al, PLoS One (2012) 7:e36856), AKT activation status following different treatments was also analysed.

Row | SMILES | IC50 (MET5A cells) [µM] | IC50 (REN cells) [µM] | PARP1 cleavage, single agent (PARP1 cleavage) | IC50 (REN cells; Homo sapiens) [µM]
1 | N.N.[Cl][Pt][Cl] [cisplatin, reference compound] | 25 | 100 | neither cisplatin nor Compound (I) alone resulted in significant PARP1 cleavage | 
2 | Nc1nc2[nH]cc(CCc3ccc(C(=O)N[C@@H](CCC(=O)O)C(=O)O)cc3)c2c(=O)[nH]1 [pemetrexed, reference compound] |  |  |  | 22
